In patent publication US10106557B2, “Preparation method for benzoxazoleoxazine ketone compound and intermediate and crystal form thereof” (NORTH CHINA PHARMACEUTICAL NEW DRUG R & D CO., LTD., priority 2014, dated 2018):

Legend:
Format in all cases: biochemical
human thrombin = human thrombin (Homo sapiens (Human), UniProt P00734); experiment: Human thrombin assay; conditions: substrate S-2238; Ki from IC50 by Cheng-Prusoff
Procedure: (§1) The inhibitory ability of the compounds to be tested on Xa factor or other enzymes, such as thrombin or trypsin, in human or rats were determined by IC50 values, wherein the IC50 value was associated with the inhibition constant Ki. The purified enzyme was used in the chromogenic determination. The initial rate of hydrolysis of the chromogenic substrate was determined by the variation of absorbance at 405 nm in the linear part on time (usually 2 to 10 minutes after the addition of the substrate) at 37° C. by using FlexStation III (USA Molecular Instruments). By plotting a curve regarding the relative velocity of the hydrolysis (compared to the control group which was free of inhibition) on the logarithm of the concentration of the compounds and linear regression calculation, the concentration of the inhibitor leading to a 50% reduction of the rate of the hydrolysis of the substrate was determined. The enzyme inhibition constant (Ki) was calculated according to Cheng-Prusoff equation: Ki=IC50/(1+[S]/Km), where [S] was the substrate concentration and Km was the meter-Mann's constant determined by the double reciprocal mapping method. The IC50 values of the compounds were obtained by GraphPad Prism software. The curve is fitted by using the “shaped dose effect (variable slope)”.
The inhibitory activity on human thrombin was determined by using a buffer (10 mM HEPES buffer, pH 7.4, 2 mM CaCl2). Appropriate wells in the Greiner 384 microtiter plate were used to determine IC50. A buffer contained 50 μL human thrombin (Sigma; T8885), the final concentration of which was 0.05 NIH unit/mL. A buffer containing 2 μL 2% (V/V) DMSO (control group which was free of inhibition) or various concentration of the compound to be tested was diluted in the buffer containing 2% (V/V) DMSO. A buffer containing 48 μL substrate S-2238 (Chromogenix; Chemical formula: H-D-Phe-Pip-Arg-pNA.2HCl) was added, the final concentration was 30 μM. In this assay, the compound to be tested and the enzyme were pre-incubated for 10 minutes, the substrate was added to give a final volume of 100 μL to start the assay.

human trypsin = experiment: Human trypsin assay; conditions: substrate S-2222; Ki from IC50 by Cheng-Prusoff
Procedure: as §1
The inhibitory activity on human trypsin was determined by using buffer (50 mM Tris, pH 8.2, and 20 mM CaCl2). Appropriate wells in the Greiner 384 microtiter plate were used to determine IC50. A buffer containing 50 μL human trypsin (Sigma; T6424), the final concentration was 0.39 BAEE unit/mL, a buffer containing 2 μL 2% (V/V) DMSO (control group which was free of inhibition) or various concentration of the compound to be tested was diluted in the buffer containing 2% (V/V) DMSO. A buffer containing substrate S-2222 (Chromogenix), the final concentration was 30 μM. In this assay, the compound to be tested and the enzyme were pre-incubated for 10 minutes and then 48 μL substrate was added to give a final volume of 100 μL to start the assay.

[1] = target: rat coagulation factor Xa (Rattus norvegicus (Rat), UniProt Q63207); experiment: Rat coagulation factor Xa chromogenic assay; conditions: purified enzyme, substrate S-2222, 37° C.; Ki from IC50 by Cheng-Prusoff; read-out: rfXa Ki
Procedure: (§2) The inhibitory ability of the compounds to be tested on Xa factor or other enzymes, such as thrombin or trypsin, in human or rats were determined by IC50 values, wherein the IC50 value was associated with the inhibition constant Ki. The purified enzyme was used in the chromogenic determination. […] By plotting a curve regarding the relative velocity of the hydrolysis (compared to the control group which was free of inhibition) on the logarithm of the concentration of the compounds and linear regression calculation, the concentration of the inhibitor leading to a 50% reduction of the rate of the hydrolysis of the substrate was determined. The enzyme inhibition constant (Ki) was calculated according to Cheng-Prusoff equation: Ki=IC50/(1+[S]/Km), where [S] was the substrate concentration and Km was the meter-Mann's constant determined by the double reciprocal mapping method. The IC50 values of the compounds were obtained by GraphPad Prism software. The curve is fitted by using the “shaped dose effect (variable slope)”.
The inhibitory activity on coagulation factor Xa activity in human or rats was measured by using Tris-HCl buffer (50 mM, pH 8.3, 150 mM NaCl).

prothrombinase = prothrombinase (Homo sapiens (Human), UniProt P00742); experiment: Prothrombin assay (prothrombinase, thrombin production); conditions: human factor Xa, human blood platelets, substrate S-2238
Procedure: as §2
The activity of the compound to be tested against prothrombinase was determined by the production of thrombin. In summary, 12.5 μL human factor Xa was incubated in 10 mM HEPES buffer and pH 7.4, 2 mM CaCl2, the final concentration was 0.5 nM, and 12.5 μL human blood platelets (1×10^7 mL^−1) was added at 37° C. After 10 mins, 25 μL prothrombin was added to initiate the reaction, the final concentration was 0.5 μM, a buffer containing 2 μL 2% (V/V) DMSO (control group which was free of inhibition) or various concentration of the compound was diluted in the buffer containing 2% (V/V) DMSO.

[2] = target: human coagulation factor Xa (Homo sapiens (Human), UniProt P00742); experiment: Human coagulation factor Xa chromogenic assay; conditions: purified enzyme, substrate S-2222, 37° C.; Ki from IC50 by Cheng-Prusoff; read-out: hfXa Ki
Procedure: as §1
The inhibitory activity on coagulation factor Xa activity in human or rats was measured by using Tris-HCl buffer (50 mM, pH 8.3, 150 mM NaCl). […] The buffer containing 2 μL 2% (V/V) DMSO (control group which was free of inhibition) or various concentrations of the compounds to be tested were diluted in the buffer containing 2% (V/V) DMSO, and 48 μL buffer of the supporting base S-2222 (Chromogenix; chemical formula: Bz-IIe-Glu(γ-OR)-Gly-Arg-pNA.HCl R═H (50%), wherein R═CH3 (50%)) was added, the final concentration was 0.172 mM.

human coagulation factor Xa, sequence (P00742 235-488): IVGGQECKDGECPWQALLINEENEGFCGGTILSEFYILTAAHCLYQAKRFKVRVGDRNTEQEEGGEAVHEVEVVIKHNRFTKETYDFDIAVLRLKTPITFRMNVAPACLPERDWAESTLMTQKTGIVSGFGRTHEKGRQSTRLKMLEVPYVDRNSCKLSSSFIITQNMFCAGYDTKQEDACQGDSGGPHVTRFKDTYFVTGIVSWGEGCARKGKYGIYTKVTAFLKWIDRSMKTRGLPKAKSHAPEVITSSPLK
human coagulation factor Xa, sequence (P00742 41-179): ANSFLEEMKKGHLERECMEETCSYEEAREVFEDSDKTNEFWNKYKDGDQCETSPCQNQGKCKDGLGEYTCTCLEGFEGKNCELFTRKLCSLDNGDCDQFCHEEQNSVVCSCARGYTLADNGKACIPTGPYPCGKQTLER
prothrombinase, sequence (P00742 235-488): as the sequence (P00742 235-488) above
prothrombinase, sequence (P00742 41-179): as the sequence (P00742 41-179) above
prothrombinase, sequence (P12259 29-737 partner): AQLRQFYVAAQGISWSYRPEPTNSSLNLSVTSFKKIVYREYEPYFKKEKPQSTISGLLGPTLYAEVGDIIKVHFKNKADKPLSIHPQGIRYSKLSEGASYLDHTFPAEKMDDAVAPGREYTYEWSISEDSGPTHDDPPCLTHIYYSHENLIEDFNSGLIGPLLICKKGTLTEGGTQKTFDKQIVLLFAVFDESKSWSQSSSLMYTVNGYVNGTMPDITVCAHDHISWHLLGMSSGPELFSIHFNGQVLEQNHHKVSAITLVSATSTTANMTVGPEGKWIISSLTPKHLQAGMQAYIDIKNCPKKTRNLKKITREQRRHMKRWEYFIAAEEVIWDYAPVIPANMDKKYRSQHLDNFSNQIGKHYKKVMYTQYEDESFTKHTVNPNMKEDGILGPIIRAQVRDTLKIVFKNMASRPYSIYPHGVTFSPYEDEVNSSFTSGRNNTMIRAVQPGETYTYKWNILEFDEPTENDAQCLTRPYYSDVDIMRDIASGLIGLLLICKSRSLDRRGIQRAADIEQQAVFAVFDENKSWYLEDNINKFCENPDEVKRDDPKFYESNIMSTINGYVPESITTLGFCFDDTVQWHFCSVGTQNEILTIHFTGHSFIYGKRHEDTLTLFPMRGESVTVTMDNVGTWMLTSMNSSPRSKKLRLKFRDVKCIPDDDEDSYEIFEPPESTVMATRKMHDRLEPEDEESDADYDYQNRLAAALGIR
prothrombinase, sequence (P12259 1574-2224 partner): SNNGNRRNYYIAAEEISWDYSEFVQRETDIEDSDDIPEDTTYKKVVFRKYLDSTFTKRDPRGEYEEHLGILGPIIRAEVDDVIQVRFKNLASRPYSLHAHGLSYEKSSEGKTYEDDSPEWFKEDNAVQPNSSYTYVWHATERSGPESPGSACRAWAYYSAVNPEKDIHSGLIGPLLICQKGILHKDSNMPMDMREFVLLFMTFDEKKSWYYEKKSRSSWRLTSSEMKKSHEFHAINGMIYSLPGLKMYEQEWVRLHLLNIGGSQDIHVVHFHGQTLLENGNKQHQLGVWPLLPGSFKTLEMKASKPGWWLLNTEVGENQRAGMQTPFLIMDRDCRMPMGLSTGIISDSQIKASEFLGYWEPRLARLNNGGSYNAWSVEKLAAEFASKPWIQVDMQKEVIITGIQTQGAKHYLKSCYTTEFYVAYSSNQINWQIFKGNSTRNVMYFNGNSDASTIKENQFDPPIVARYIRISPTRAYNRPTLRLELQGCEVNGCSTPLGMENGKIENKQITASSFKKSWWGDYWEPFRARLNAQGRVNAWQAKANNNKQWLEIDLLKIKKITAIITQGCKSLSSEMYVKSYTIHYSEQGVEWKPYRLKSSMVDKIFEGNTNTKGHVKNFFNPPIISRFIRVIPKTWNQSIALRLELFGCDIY
rat coagulation factor Xa, sequence (Q63207 232-482): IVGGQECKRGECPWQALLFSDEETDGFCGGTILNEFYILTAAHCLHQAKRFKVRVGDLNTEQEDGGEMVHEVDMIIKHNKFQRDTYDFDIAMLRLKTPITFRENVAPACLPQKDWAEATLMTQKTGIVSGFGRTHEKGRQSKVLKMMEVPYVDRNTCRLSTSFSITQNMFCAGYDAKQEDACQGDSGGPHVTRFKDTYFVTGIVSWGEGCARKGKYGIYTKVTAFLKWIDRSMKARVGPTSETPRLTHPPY
rat coagulation factor Xa, sequence (Q63207 41-180): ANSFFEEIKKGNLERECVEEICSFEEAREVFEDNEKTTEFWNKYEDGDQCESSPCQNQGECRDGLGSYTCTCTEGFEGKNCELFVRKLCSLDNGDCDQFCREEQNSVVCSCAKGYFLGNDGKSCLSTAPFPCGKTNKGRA

## O=C(NC[C@@H]1OC(=O)N2c3ccc(N4CCCCC4=O)cc3OC[C@@H]12)c1ccc(Cl)s1 [Compound 2]
Human thrombin
  Ki: > 1000 nM
Human trypsin
  Ki: > 20000 nM
[1]
  Ki: 4.45 nM

## O=C(NC[C@@H]1OC(=O)N2c3ccc(N4CCCNC4=O)cc3OC[C@@H]12)c1ccc(Cl)s1 [Compound 7]
Human thrombin
  Ki: > 1000 nM
prothrombinase
  Ki: 4.41 nM
[2]
  Ki: 4.13 nM
Human trypsin
  Ki: > 20000 nM
[1]
  Ki: 16.5 nM

## COC[C@H]1CCCN1c1ccc2c(c1)OC[C@H]1[C@H](CNC(=O)c3ccc(Cl)s3)OC(=O)N21 [Compound 30]
Human thrombin
  Ki: > 1000 nM
prothrombinase
  Ki: 16.2 nM
[2]
  Ki: 9.71 nM
Human trypsin
  Ki: > 20000 nM
[1]
  Ki: 21.5 nM

## O=C(NC[C@@H]1OC(=O)N2c3ccc(-n4cncn4)cc3OC[C@@H]12)c1ccc(Cl)s1 [Compound 34]
[2]
  Ki: 106 nM

## O=C(NC[C@@H]1OC(=O)N2c3ccc(N4CCOCC4=O)cc3OC[C@@H]12)c1ccc(Cl)s1 [Compound 1, 5-chloro-N-(((3S,3aS)-1-one-7-(3-ketomorpholine)-1,3,3a,4-tetrahydrobenzo[b]oxazolo[3,4-d][1,4]oxazin-3-yl)methyl)thiophene-2-carboxamide]
Human thrombin
  Ki: > 1000 nM
prothrombinase
  Ki: 0.47 nM
[2]
  Ki: 1.01 nM
Human trypsin
  Ki: > 20000 nM
[1]
  Ki: 2.87 nM

## O=C(NC[C@@H]1OC(=O)N2c3ccc(-n4ccccc4=O)cc3OC[C@@H]12)c1ccc(Cl)s1 [Compound 8]
Human thrombin
  Ki: > 1000 nM
prothrombinase
  Ki: 0.9 nM
[2]
  Ki: 1.92 nM
Human trypsin
  Ki: > 20000 nM
[1]
  Ki: 3.17 nM
